Assay results: ChEMBL document CHEMBL6182910, “Design, Synthesis, and Biological Evaluation of 4-(Difluoromethyl)-1H-imidazole-5-carboxylic Acids/4-(3-Cyanophenoxy)pyrimidine-5-carboxylic Acids as P2Y1 Receptor Antagonists for Ischemic Stroke Treatment” (J Med Chem, 2025)
Calls of active or inactive are those of the source. The calls are words filed in the database; no cut-off is given here.

Legend:
Rattus norvegicus [1] = assay: Neuroprotective activity in MCAO-induced brain damage Sprague-Dawley rat model assessed as plasma MDA level at 2.5 to 10 mg/kg, iv administered immediately after arterial occlusion measured after 24 hrs (reference value: 7.93 nmol/ml); assay type: functional; settings: dose 2.5-10 mg/kg
Plasma = assay: Anti-platelet aggregation in platelet-rich plasma of male human assessed as inhibition of ADP-induced platelet aggregation preincubated for 15 mins followed by ADP addition measured up to 10 mins by Born's turbidometric method; assay type: functional, cell-free
P2Y purinoceptor 1 = P2Y purinoceptor 1 (Rattus norvegicus, UniProt P49651); assay: Antagonist activity at P2Y1 receptor in platelet-rich plasma of rat assessed as inhibition of ADP-induced cytosolic Ca2+ level pretreated for 5 mins followed by ADP addition by FLUO-4 AM dye based analysis; assay type: functional, cell-free
[2] = Cmax male Sprague-Dawley rat at 10 mg/kg, iv measured up to 24 hrs by LC-MS/MS analysis; assay type: ADME, organism-based; settings: in vivo
[3] = AUC in plasma of male Sprague-Dawley rat at 10 mg/kg, iv measured for 0.083 to 24 hrs by LC-MS/MS analysis; assay type: ADME, organism-based; settings: time 0.083-24 hrs
[4] = MRT (0 to infinity) male Sprague-Dawley rat at 10 mg/kg, iv measured up to 24 hrs by LC-MS/MS analysis; assay type: ADME, organism-based; settings: in vivo
[5] = Clearance male Sprague-Dawley rat at 10 mg/kg, po measured up to 24 hrs by LC-MS/MS analysis; assay type: ADME, organism-based; settings: in vivo
[6] = AUC (0 to infinity) male Sprague-Dawley rat at 10 mg/kg, iv measured up to 24 hrs by LC-MS/MS analysis; assay type: ADME, organism-based; settings: in vivo
[7] = target: P2Y purinoceptor 1 (Rattus norvegicus) (UniProt P49651); assay: Induction of thermal stabilization of P2Y1 receptor in rat platelet-rich plasma at 10 uM incubated for 30 mins followed by heat exposure at 48 to 62 degreeC for 10 mins by CETSA; assay type: cell-free; settings: time 40.0 min
[8] = target: P2Y purinoceptor 12 (Rattus norvegicus) (UniProt Q9EPX4); assay: Antagonist activity at P2Y12 receptor in platelet-rich plasma of male Sprague-Dawley rat assessed as inhibition of VASP phosphorylation at Ser239 at 30 uM pretreated for 10 mins followed by PGE1/ADP addition measured after 10 mins by ELISA relative to control; assay type: cell-free; settings: time 20.0 min
Rattus norvegicus [9] = assay: Neuroprotective activity in MCAO-induced brain damage Sprague-Dawley rat model assessed as clear nucleoli with uniform staining at 2.5 to 10 mg/kg, iv administered immediately after arterial occlusion measured after 24 hrs by H and E staining based analysis; assay type: functional, organism-based; settings: dose 2.5-10 mg/kg
Rattus norvegicus [10] = assay: Anti-platelet aggregation in Sprague-Dawley rat assessed as inhibition of ADP-induced platelet aggregation at 10 mg/kg, po measured for 15 mins in presence of 10 uM ADP by cell counter analysis relative to control; assay type: functional; settings: 0.25 h
CYP2C19 = CYP2C19 (Homo sapiens, UniProt P33261); assay: Inhibition of CYP2C19 in human liver microsomes using S-mephenytoin as substrate at 10 uM preincubated for 5 min followed by NADPH addition measured after 120 mins by LC-MS/MS analysis relative to control; assay type: ADME, Microsome; settings: probe S-mephenytoin, time 125 min
Rattus norvegicus [11] = assay: Neuroprotective activity in MCAO-induced brain damage Sprague-Dawley rat model assessed as brain infarction size at 2.5 mg/kg, iv administered immediately after arterial occlusion measured after 24 hrs by TTC staining based analysis (reference value: 43.1 %); assay type: functional
HT-22 [12] = assay: Neuroprotective activity against H2O2-induced oxidative stress in mouse HT-22 cells assessed as cell viability at 10 uM preincubated for 2 hrs followed by H2O2 addition measured after 24 hrs by MTT assay (reference value: 55 +/- 4.6 %); assay type: functional; settings: time 26 hrs, read-out: Activity
[13] = Ratio of AUC in brain to plasma of male Sprague-Dawley rat at 10 mg/kg, iv measured for 0.083 to 24 hrs by LC-MS/MS analysis; assay type: ADME, organism-based; settings: brain and plasma, time 0.083-24 hrs, read-out: Ratio AUC
Rattus norvegicus [14] = assay: Neuroprotective activity in MCAO-induced brain damage Sprague-Dawley rat model assessed as improvement in hippocampal neuron damage administered intravenously immediately after arterial occlusion measured after 24 hrs by H and E staining based analysis; assay type: functional, organism-based; settings: dose 2.5-10 mg/kg, route iv
Rattus norvegicus [15] = assay: Anti-platelet aggregation in Sprague-Dawley rat assessed as inhibition of ADP-induced platelet aggregation at 10 mg/kg, po measured for 15 mins in presence of 2.5 uM ADP by cell counter analysis relative to control; assay type: functional; settings: 0.25 h
CYP2C9 = CYP2C9 (Homo sapiens, UniProt P11712); assay: Inhibition of CYP2C9 in human liver microsomes using tolbutamide as substrate at 10 uM preincubated for 5 min followed by NADPH addition measured after 120 mins by LC-MS/MS analysis relative to control; assay type: ADME, Microsome; settings: probe tolbutamide, time 125 min
Rattus norvegicus [16] = assay: Neuroprotective activity in MCAO-induced brain damage Sprague-Dawley rat model assessed as plasma GSH-px level at 2.5 to 10 mg/kg, iv administered immediately after arterial occlusion measured after 24 hrs; assay type: functional; settings: dose 2.5-10 mg/kg
Rattus norvegicus [17] = assay: Neuroprotective activity in MCAO-induced brain damage Sprague-Dawley rat model assessed as transparent cytoplasm at 2.5 to 10 mg/kg, iv administered immediately after arterial occlusion measured after 24 hrs by H and E staining based analysis; assay type: functional, organism-based; settings: dose 2.5-10 mg/kg
Rattus norvegicus [18] = assay: Neuroprotective activity in MCAO-induced brain damage Sprague-Dawley rat model assessed as reduction in neurological deficit scores at 10 mg/kg, iv administered immediately after arterial occlusion measured after 24 hrs by Longa's method; assay type: functional, organism-based
[19] = Antagonist activity at P2Y1 receptor in platelet-rich plasma of male Japanese white rabbit assessed as inhibition of ADP-induced cytosolic Ca2+ level pretreated for 5 mins followed by ADP addition by FLUO-4 AM dye based analysis; assay type: cell-free; settings: Oryctolagus cuniculus
HT-22 [20] = assay: Neuroprotective activity against H2O2-induced oxidative stress in mouse HT-22 cells assessed as increase in nuclear Nrf2 level at 10 uM preincubated for 2 hrs followed by H2O2 addition measured after 16 hrs by Western blot analysis; assay type: functional, cell-based; settings: time 18.0 hrs
Rattus norvegicus [21] = assay: Neuroprotective activity in MCAO-induced brain damage Sprague-Dawley rat model assessed as brain infarction size at 10 mg/kg, iv administered immediately after arterial occlusion measured after 24 hrs by TTC staining based analysis (reference value: 43.1 %); assay type: functional
Rattus norvegicus [22] = assay: Neuroprotective activity in MCAO-induced brain damage Sprague-Dawley rat model assessed as reduction in brain infarction size at 10 mg/kg, iv administered immediately after arterial occlusion measured after 24 hrs by TTC staining based analysis relative to control; assay type: functional; design: scale not given: the % may be the effect or the level left
Rattus norvegicus [23] = assay: Neuroprotective activity in MCAO-induced brain damage Sprague-Dawley rat model assessed as brain infarction size at 5 mg/kg, iv administered immediately after arterial occlusion measured after 24 hrs by TTC staining based analysis (reference value: 43.1 %); assay type: functional

Chain of P2Y purinoceptor 12 (Rattus norvegicus) (Q9EPX4 whole entry): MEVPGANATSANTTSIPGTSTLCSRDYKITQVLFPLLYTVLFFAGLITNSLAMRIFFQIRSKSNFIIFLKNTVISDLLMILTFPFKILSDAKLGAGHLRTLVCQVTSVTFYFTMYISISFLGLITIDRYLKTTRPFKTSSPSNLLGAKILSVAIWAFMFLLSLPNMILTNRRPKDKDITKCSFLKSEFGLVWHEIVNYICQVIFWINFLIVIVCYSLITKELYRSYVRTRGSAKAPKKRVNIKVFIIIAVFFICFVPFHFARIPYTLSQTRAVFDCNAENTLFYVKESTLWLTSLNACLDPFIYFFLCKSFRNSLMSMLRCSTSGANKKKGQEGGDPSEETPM
Chain of CYP2C9 (P11712 whole entry): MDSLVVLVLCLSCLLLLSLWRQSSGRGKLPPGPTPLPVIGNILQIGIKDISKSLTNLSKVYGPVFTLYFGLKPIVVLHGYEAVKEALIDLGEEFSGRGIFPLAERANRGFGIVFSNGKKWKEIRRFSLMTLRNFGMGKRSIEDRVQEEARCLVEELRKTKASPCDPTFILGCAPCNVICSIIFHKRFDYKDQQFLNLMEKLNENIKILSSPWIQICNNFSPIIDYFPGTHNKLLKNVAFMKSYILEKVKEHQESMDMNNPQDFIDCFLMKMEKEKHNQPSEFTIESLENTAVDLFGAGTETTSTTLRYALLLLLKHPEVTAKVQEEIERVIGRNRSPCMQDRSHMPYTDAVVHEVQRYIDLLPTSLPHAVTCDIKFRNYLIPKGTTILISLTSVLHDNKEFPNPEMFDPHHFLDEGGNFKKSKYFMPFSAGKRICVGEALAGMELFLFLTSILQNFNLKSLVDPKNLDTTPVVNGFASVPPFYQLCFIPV
Chain of CYP2C19 (P33261 whole entry): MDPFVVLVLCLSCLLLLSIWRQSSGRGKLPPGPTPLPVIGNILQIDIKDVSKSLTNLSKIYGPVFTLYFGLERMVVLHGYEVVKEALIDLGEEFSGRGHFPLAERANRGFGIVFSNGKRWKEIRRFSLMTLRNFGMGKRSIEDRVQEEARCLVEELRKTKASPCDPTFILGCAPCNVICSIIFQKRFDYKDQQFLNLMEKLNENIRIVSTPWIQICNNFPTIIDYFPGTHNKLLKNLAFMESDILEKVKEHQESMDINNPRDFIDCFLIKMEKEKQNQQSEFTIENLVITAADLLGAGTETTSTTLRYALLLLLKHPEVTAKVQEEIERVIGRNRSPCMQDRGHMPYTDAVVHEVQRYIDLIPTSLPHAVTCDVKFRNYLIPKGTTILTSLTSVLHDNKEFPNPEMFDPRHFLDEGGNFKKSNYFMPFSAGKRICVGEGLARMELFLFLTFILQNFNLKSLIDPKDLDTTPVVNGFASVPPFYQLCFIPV
Chain of P2Y purinoceptor 1 (Rattus norvegicus) (P49651 whole entry): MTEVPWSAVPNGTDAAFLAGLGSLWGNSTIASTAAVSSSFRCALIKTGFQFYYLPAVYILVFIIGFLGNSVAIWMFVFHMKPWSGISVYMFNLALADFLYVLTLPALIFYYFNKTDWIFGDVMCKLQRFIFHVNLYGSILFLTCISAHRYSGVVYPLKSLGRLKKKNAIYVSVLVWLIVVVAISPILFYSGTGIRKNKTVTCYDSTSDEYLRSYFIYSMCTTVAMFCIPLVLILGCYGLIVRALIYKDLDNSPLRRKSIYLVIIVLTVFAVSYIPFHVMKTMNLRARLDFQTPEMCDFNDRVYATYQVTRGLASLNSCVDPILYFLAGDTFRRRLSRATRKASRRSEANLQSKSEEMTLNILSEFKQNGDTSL
Chain of P2Y purinoceptor 1 (P49651 whole entry): as above

| SMILES | Activity (Rattus norvegicus [1]) [nmol/mL] | IC50 (Plasma) [nM] | IC50 (P2Y purinoceptor 1) [nM] | Cmax [2] [ng/mL] | AUC [3] [ng·h/mL] | MRT inf [4] [min] | CL/F [5] [mL/min/kg] | AUC(0-inf) [6] [ng·h/mL] | Activity [7] | inhibition [8] [%] | Activity (Rattus norvegicus [9]) | inhibition in vivo at 10 mg/kg (Rattus norvegicus [10]) [%] | inhibition at 2 h, 10 µM (CYP2C19) [%] | Activity (Rattus norvegicus [11]) [%] | viability at 10 µM (HT-22 [12]) [%] | Kp [13] | Activity (Rattus norvegicus [14]) | inhibition in vivo at 10 mg/kg (Rattus norvegicus [15]) [%] | inhibition at 2 h, 10 µM (CYP2C9) [%] | Activity (Rattus norvegicus [16]) [U/ml] | other results |
| --- | --- | --- | --- | --- | --- | --- | --- | --- | --- | --- | --- | --- | --- | --- | --- | --- | --- | --- | --- | --- | --- |
| N#Cc1cccc(Oc2nc(-c3cccc(C#N)c3)ncc2C(=O)O)c1 | 4.37 | 3630 | 2460 | 48200 | 75200 | 27.2 | 169 | 23800 | Active | 29.3 | Active | 37.2 | 9.7 | 29.3 | 94.7 | 0.25 | Dose-dependent-effect; Activity Comparable To Hnw001, Bptu, Edaravone At 10 Mg/Kg | 66 | 26.3 | 591.5 | Activity (Rattus norvegicus [17]): Active; Activity (Rattus norvegicus [18]): Active; Activity Was Less Than Bptu; IC50 [19]: 500 nM; Activity (HT-22 [20]): Active; Activity (Rattus norvegicus [21]): 11.1%; Activity (Rattus norvegicus [22]): 74.2%; Activity (Rattus norvegicus [23]): 21.3% |
| N#Cc1cccc(-c2nc(C(F)F)c(C(=O)O)n2OCc2csc(N)n2)c1 | 4.37 | 3350 | 2200 | 44300 | 14000 | 7.5 | 4630 | 11400 | Active | 18.4 | Active | 38.8 | 27.4 | 25.6 | 90.7 | 0.073 | Dose-dependent-effect; Activity Comparable To Hnw001, Bptu, Edaravone At 10 Mg/Kg | 54.5 | 9.7 | 645.4 | Activity (Rattus norvegicus [17]): Active; Activity (Rattus norvegicus [18]): Active; Activity Was Less Than Bptu; IC50 [19]: 490 nM; Activity (HT-22 [20]): Active; Activity (Rattus norvegicus [21]): 20.9%; Activity (Rattus norvegicus [22]): 51.5%; Activity (Rattus norvegicus [23]): 23.3% |
